Assay results from ChEMBL document CHEMBL5050844 (2019).

Experiments:
Format in all cases: functional, T cell line
[1] = Induction of anti-CD3/CD28 antibodies-stimulated human T cell activation at 4 uM assessed fold increase in IL-2 secretion measured by ELISA assay
[2] = Induction of anti-CD3/CD28 antibodies-stimulated human T cell activation at 1 uM assessed fold increase in IL-2 secretion measured by ELISA assay
[3] = Induction of anti-CD3/CD28 antibodies-stimulated human T cell activation at 0.3 uM assessed fold increase in IL-2 secretion measured by ELISA assay
[4] = Induction of anti-CD3 antibodies-stimulated human T cell activation at 8 uM assessed fold increase in IL-2 secretion measured by ELISA assay; also: reference of the scale not given here
[5] = Induction of anti-CD3 antibodies-stimulated human T cell activation at 1 uM assessed fold increase in IL-2 secretion measured by ELISA assay; also: reference of the scale not given here
[6] = Induction of anti-CD3/CD28 antibodies-stimulated human T cell activation at 4 uM assessed fold increase in CD25 expression measured by ELISA assay
[7] = Induction of anti-CD3/CD28 antibodies-stimulated human T cell activation at 1 uM assessed fold increase in CD25 expression measured by ELISA assay
[8] = Induction of anti-CD3/CD28 antibodies-stimulated human T cell activation at 0.3 uM assessed fold increase in CD25 expression measured by ELISA assay
[9] = Induction of anti-CD3 antibodies-stimulated human T cell activation at 8 uM assessed fold increase in CD25 expression measured by ELISA assay; also: reference of the scale not given here
[10] = Induction of anti-CD3 antibodies-stimulated human T cell activation at 1 uM assessed fold increase in CD25 expression measured by ELISA assay; also: reference of the scale not given here

SMILES	fold change (FC) [1]	fold change (FC) [2]	fold change (FC) [3]	fold change (FC) [4]	fold change (FC) [5]	fold change (FC) [6]	fold change (FC) [7]	fold change (FC) [8]	fold change (FC) [9]	fold change (FC) [10]
C[C@H](Cc1nocc1C(F)(F)F)c1cccc(N2Cc3c(cc(C(=O)N4CC[C@H](O)C4)cc3C(F)(F)F)C2=O)c1	2.51	1.01	1.01	>=0.201	0.051	1.31	1.01	1.01	>=1.001	0.601
Cc1[nH]cnc1CC(C)c1cccc(N2Cc3c(cccc3C(F)(F)F)C2=O)c1 (stereo not given)	<=1	<=1	<=1	0.101	0.101	1.01	<=1	<=1	<=0.6	<=0.6
Cn1cnnc1[C@H](F)[C@@](C)(F)c1cccc(N2Cc3c(cc(C4CC4)cc3C(F)(F)F)C2=O)c1 (single isomer, unassigned; 482)	1.01	1.01	<=1	0.051	0.051	1.01	1.01	1.01	0.801	0.601
Cn1cnnc1[C@@H]1C[C@@H]1c1cccc(NC(=O)c2nc3c(C(F)(F)F)cccc3[nH]2)c1	2.51	1.01	1.01	>=0.201	0.101	1.01	1.01	1.01	0.801	0.601
C[C@H](Cc1nncn1C)c1cccc(NC(=O)c2cc(C3(O)COC3)cc(C(F)(F)F)n2)c1	5	1.01	<=1	0.101	<=0.05	>=1.76	>=1.76	>=1.76	>=1.001	0.601
Cc1ccc(C(=O)Nc2cccc([C@H](C)Cc3nnc[nH]3)c2)nc1C1CC1	1.01	1.01	1.01	<=0.05	<=0.05	>=1.76	1.51	1.51	<=0.6	<=0.6
C[C@H](Cc1nncn1C)c1cc(OCCO)nc(N2Cc3c(cccc3C(F)(F)F)C2=O)c1	2.51	1.01	1.01	>=0.201	0.051	1.31	1.01	1.01	>=1.001	0.601
Cc1ccc(C(=O)Nc2cccc(C(C)C(F)(F)c3nncn3C)c2)nc1C1CC1 (stereo not given)	2.51	1.01	1.01	0.101	0.051	1.01	<=1	<=1	>=1.001	0.801
C[C@H](Cc1nncn1C)c1cccc(NC(=O)c2cc(C(=O)N3CC[C@](C)(O)C3)ccn2)c1	<=1	<=1	<=1	<=0.05	<=0.05	1.51	1.31	1.51	<=0.6	<=0.6
C[C@H](Cc1nncn1C)c1cc(N[C@@H](C)CO)nc(N2Cc3c(cccc3C(F)(F)F)C2=O)c1	2.51	1.01	1.01	0.151	0.051	1.01	1.01	1.01	>=1.001	0.601
C[C@H](Sc1nncn1C)c1cccc(NC(=O)c2cc(C(F)(F)F)ccn2)c1	1.01	1.01	<=1	0.101	<=0.05	1.01	1.01	1.01	>=1.001	0.601
C[C@H](Cc1nncn1C)c1cccc(NC(=O)c2cc(C(F)(F)F)n[nH]2)c1	1.01	1.01	1.01	0.101	0.051	1.01	1.01	1.01	0.601	0.601
C[C@H](Sc1nncn1C)c1cccc(NC(=O)c2cc(C(F)(F)F)cc(C3CC3)n2)c1	1.01	<=1	<=1	<=0.05	<=0.05	1.31	1.01	1.01	<=0.6	<=0.6
C[C@H](Sc1nncn1C)c1cccc(NC(=O)c2cc(C(=O)N3C[C@H](O)C[C@@H]3C)ccn2)c1	>=7.5	>=7.5	>=7.5	<=0.05	<=0.05	1.01	1.01	1.01	0.601	<=0.6
Cn1cnnc1CC(c1cccc(N2Cc3c(cccc3C(F)(F)F)C2=O)c1)C(F)(F)F (stereo not given)	1.01	<=1	<=1	0.151	0.101	1.01	1.01	1.01	0.801	0.801
C[C@H](Sc1nncn1C)c1cccc(NC(=O)c2cc(C3(O)COC3)cc(C(F)(F)F)n2)c1	<=1	<=1	<=1	<=0.05	<=0.05	1.01	1.01	<=1	0.601	<=0.6
Cc1cc(C(=O)Nc2cc([C@H](C)Sc3nncn3C)ccn2)nc(C(F)(F)F)c1	1.01	1.01	1.01	0.051	<=0.05	1.01	<=1	<=1	0.801	<=0.6
Cn1cnnc1[C@H]1CC[C@H]1c1cccc(N2Cc3c(cccc3C(F)(F)F)C2=O)c1 (racemic)	1.01	1.01	<=1	0.101	<=0.05	1.01	<=1	<=1	<=0.6	<=0.6
CN1CCN(c2cc3c(c(C(F)(F)F)c2)CN(c2cccc([C@@](C)(F)C(F)(F)c4nncn4C)c2)C3=O)CC1	2.51	1.01	1.01	0.151	0.051	1.01	1.01	1.01	>=1.001	0.601
C[C@H](Sc1nncn1C)c1cccc(NC(=O)c2cc(Cl)cc(C(F)(F)F)n2)c1	1.01	1.01	1.01	0.051	<=0.05	1.01	1.01	1.01	0.801	0.601
C[C@H](Cc1nncn1C)c1cccc(NC(=O)c2cc(C(=O)N3C[C@@H](O)C[C@H]3C)ccn2)c1	<=1	<=1	<=1	0.101	0.101	1.51	1.01	1.01	<=0.6	<=0.6
CC1OCC1Oc1cc([C@H](C)Cc2nncn2C)cc(N2Cc3c(cccc3C(F)(F)F)C2=O)n1 (stereo not given in full)	1.01	1.01	1.01	0.101	0.051	1.01	1.01	1.01	0.601	0.601
